Data published in paper PMC6508792, “Arabidopsis MATE45 antagonizes local abscisic acid signaling to mediate development and abiotic stress responses” (Plant Direct, 2018).

Target: T1, MATE45^long (Arabidopsis thaliana, UniProt A0A1L2EGK5)
T1 construct: gene At1g71870; long splice form ORF cloned from wild-type seedling cDNA, in pDEST42, expressed in Escherichia coli acrB
T1 sequence (A0A1L2EGK5 1-510): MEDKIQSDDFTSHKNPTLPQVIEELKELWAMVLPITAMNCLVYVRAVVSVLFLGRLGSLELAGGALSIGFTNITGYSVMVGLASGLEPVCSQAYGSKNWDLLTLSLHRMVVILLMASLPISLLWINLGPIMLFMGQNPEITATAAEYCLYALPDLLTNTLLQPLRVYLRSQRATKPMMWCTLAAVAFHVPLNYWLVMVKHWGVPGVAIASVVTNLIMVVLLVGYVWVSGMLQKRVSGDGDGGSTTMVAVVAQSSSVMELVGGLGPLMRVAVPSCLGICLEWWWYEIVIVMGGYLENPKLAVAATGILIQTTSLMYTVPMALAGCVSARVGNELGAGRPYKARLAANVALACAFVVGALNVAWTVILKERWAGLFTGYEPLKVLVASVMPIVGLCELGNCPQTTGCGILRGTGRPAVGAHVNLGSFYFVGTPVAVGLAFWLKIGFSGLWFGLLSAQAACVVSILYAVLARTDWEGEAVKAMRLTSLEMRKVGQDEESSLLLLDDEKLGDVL
Test: uptake into E. coli acrB cells, LC-MS MRM
Assay type: cell-based
Details: 0.5 uM (+)-ABA, 30 min; Venus fluorescent protein as control

SMILES: CC1=CC(=O)CC(C)(C)C1(O)/C=C/C(C)=C\C(=O)O (stereo in doubt) [(+)-ABA, (+)‐ABA]
- rate of (+)-ABA uptake: significantly higher rates of ABA uptake into E. coli cells expressing MATE45^long compared to the control
